Data published in patent publication US20230050653A1, “ROCK INHIBITOR AND PREPARATION METHOD THEREFOR AND USE THEREOF” (WUHAN LL SCIENCE AND TECHNOLOGY DEVELOPMENT CO., LTD., priority 2019, published 2023).

What was measured:
ROCK2 kinase = target: T1, ROCK2 kinase (Homo sapiens, UniProt O75116); assay: In vitro evaluation of ROCK2 kinase activity (HTRF KinEASE-STK time-resolved fluorometric assay); assay type: biochemical
T1 construct: purchased Invitrogen PV3759
Description: ROCK2 activity screening. ROCK2 activity was detected using a 96-well (Cisbio) time-resolved fluorometric assay. The assay for ROCK2 was performed in the following assay buffer: 5 mM MgCl2 (Sigma), 1 mM DTT (Sigma) and 1× kinase buffer. The kinase buffer was used for dilution. 7.5 μL of ROCK2 kinase (Invitrogen, PV3759) was added to a 96-well microplate to reach a final concentration of 0.4 ng/μL, and then 0.25 μL of test compound (DMSO content: 1% (volume fraction)) was added. The mixture was incubated at room temperature for 0.5 h. To start the reaction, the kinase buffer was used to mix ATP (Aladdin) and the substrate STK-substrate 2-biotin. 7.5 μL of the mixed solution was added to the microplate to reach final concentrations of 6.739 μM and 1 μM. The resulting mixture was incubated for 2 h at room temperature. 5 mL of detection buffer was mixed with STK antibody-Cryptate, and then an appropriate volume of the mixture was mixed with an equal volume of streptavidin-XL665. 10 μL of the resulting mixture was added to the microplate to stop the reaction. After further incubation for about 1 h, the microplate was read on a Molecular Devices SpectraMax i3x multifunctional microplate reader. The kinase buffer, the STK-substrate 2-biotin, the detection buffer, the STK antibody-Cryptate, and the streptavidin-XL665 were all from HTRF KinEASE-STK kit (Cisbio, 1000 tests, 61[…]).

ROCK1 kinase = target: T2, ROCK1 kinase (Homo sapiens, UniProt Q13464); assay: In vitro evaluation of ROCK1 kinase selectivity (HTRF KinEASE-STK time-resolved fluorometric assay); assay type: biochemical
T2 construct: purchased Invitrogen
Description: ROCK1 activity was detected using a 96-well (Cisbio) time-resolved fluorometric assay. The assay for ROCK1 was performed in the following assay buffer: 5 mM MgCl2 (Sigma), 1 mM DTT (Sigma) and 1× kinase buffer. The kinase buffer was used for dilution. 7.5 μL of ROCK1 kinase (Invitrogen) was added to a 96-well microplate to reach a final concentration of 0.4 ng/μL, and then 0.25 μL of test compound (DMSO content: 1%) was added. The mixture was incubated at room temperature for 0.5 h. To start the reaction, the kinase buffer was also used to mix ATP (Aladdin) and the substrate STK-substrate 2-biotin. 7.5 μL of the mixed solution was added to the microplate to reach final concentrations of 3.53 μM and 1 μM. The resulting mixture was incubated for 2 h at room temperature. […] was mixed with STK antibody-Cryptate, and then an appropriate volume of the mixture was mixed with an equal volume of streptavidin-XL665. 10 μL of the resulting mixture was added to stop the reaction. After further incubation for about 1 h, the microplate was read on a Molecular Devices SpectraMax i3x multifunctional microplate reader. The kinase buffer, the STK-substrate 2-biotin, the detection buffer, the STK antibody-Cryptate, and the streptavidin-XL665 were all from HTRF KinEASE-STK kit (Cisbio, 1000 tests, 61[…]).

T2 sequence (Q13464 whole entry): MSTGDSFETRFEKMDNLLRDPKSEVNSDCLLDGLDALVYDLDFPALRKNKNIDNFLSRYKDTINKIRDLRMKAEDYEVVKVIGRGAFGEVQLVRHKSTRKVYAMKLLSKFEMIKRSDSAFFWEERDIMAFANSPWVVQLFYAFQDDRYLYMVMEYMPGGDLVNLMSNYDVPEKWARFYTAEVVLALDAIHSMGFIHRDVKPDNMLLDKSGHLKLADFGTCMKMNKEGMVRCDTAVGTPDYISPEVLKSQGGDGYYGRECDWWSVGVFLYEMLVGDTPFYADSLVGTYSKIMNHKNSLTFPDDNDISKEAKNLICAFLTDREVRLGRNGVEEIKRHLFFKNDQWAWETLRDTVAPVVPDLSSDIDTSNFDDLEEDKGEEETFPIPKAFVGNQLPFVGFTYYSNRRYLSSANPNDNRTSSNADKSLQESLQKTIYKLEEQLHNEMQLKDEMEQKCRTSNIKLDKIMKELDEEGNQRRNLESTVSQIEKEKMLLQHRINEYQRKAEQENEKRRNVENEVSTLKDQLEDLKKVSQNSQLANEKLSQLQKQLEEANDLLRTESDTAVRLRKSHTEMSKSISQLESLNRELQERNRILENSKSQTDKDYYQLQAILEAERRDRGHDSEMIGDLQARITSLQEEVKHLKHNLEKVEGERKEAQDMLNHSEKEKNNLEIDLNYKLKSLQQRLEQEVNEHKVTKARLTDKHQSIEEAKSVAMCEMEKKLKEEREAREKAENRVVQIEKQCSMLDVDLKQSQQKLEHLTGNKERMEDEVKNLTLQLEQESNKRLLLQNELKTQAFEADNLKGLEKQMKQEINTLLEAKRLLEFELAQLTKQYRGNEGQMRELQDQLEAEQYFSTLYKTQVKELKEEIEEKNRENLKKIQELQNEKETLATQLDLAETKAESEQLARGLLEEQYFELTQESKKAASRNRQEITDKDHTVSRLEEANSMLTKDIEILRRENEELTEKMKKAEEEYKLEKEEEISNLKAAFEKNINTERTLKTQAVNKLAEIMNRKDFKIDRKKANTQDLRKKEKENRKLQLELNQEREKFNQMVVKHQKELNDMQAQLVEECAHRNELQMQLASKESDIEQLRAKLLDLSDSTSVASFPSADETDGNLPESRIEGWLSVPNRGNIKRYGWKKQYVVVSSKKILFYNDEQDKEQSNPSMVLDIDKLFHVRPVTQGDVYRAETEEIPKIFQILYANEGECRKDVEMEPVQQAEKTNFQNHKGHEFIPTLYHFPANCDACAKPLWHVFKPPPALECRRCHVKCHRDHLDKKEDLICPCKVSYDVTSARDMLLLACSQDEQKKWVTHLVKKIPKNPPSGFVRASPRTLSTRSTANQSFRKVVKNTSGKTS
T1 sequence (O75116 whole entry): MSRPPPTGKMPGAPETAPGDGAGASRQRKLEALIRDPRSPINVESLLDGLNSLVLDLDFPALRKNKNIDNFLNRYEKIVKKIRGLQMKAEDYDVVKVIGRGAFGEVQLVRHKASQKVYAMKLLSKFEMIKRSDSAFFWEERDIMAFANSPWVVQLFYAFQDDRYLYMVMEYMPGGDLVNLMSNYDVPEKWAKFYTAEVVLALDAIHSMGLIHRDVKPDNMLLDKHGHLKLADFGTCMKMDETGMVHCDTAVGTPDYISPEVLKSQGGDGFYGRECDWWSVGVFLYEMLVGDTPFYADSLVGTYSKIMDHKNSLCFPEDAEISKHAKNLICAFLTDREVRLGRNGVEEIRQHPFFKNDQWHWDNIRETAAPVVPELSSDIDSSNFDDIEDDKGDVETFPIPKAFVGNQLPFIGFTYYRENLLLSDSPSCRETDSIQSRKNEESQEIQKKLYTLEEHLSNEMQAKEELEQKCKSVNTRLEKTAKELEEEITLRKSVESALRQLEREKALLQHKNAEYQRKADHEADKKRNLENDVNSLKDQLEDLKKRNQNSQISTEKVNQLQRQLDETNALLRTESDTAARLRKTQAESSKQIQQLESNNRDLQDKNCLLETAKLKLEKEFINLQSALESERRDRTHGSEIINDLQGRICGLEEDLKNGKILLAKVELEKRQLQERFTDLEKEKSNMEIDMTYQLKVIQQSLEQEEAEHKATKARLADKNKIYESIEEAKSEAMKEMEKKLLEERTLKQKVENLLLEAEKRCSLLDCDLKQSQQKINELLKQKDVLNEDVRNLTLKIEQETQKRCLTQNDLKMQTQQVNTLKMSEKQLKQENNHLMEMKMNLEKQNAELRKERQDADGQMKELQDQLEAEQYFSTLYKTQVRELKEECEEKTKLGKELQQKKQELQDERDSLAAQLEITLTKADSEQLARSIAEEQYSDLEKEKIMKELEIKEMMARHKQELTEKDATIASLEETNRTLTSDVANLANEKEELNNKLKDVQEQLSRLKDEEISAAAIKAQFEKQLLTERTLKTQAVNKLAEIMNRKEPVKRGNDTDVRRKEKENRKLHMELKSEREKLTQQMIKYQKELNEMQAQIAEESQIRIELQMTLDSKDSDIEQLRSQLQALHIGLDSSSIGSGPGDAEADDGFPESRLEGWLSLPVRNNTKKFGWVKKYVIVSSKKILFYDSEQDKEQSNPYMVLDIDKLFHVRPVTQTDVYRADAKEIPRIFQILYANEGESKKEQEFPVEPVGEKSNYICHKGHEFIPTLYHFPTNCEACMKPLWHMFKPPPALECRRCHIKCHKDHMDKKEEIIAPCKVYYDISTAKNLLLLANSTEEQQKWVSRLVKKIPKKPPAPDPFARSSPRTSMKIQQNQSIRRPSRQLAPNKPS

IC50 (ROCK2 kinase) [µM] | IC50 (ROCK1 kinase) [µM] | Compound
≤ 0.05 | 0.05 to 0.5 | COc1cc(F)cc(C(CN(C)C)NC(=O)N2CCc3cc(-c4c[nH]nc4F)c(F)cc32)c1 (racemic) [Compound T388, (+/−)N-(2-(dimethylamino)-1-(3-fluoro-5-methoxyphenyl)ethyl)-6-fluoro-5-(3-fluoro-1H-pyrazol-4-yl)indoline-1-carboxamide]
0.05 to 0.5 | 0.5 to 5 | COc1cc(F)cc(CN(C)C(=O)N2CCc3cc(-c4cn[nH]c4)ccc32)c1 [Compound T206, N-(3-fluoro-5-methoxybenzyl)-N-methyl-5-(1H-pyrazol-4-yl)indoline-1-carboxamide]
≤ 0.05 | ≤ 0.05 | O=C(NCc1ccccc1)N1CCc2cc(-c3cn[nH]c3)ccc21 [Compound T207, N-benzyl-5-(1H-pyrazol-4-yl)indoline-1-carboxamide]
≤ 0.05 | ≤ 0.05 | COc1cc(F)cc(CNC(=O)N2CCc3ccc(-c4cn[nH]c4)cc3C2)c1 [Compound T208, N-(3-fluoro-5-methoxybenzyl)-7-(1H-pyrazol-4-yl)-3,4-dihydroisoquinoline-2(1H)-carboxamide]
0.05 to 0.5 | 0.05 to 0.5 | COc1cc(F)cc(CNC(=O)N2Cc3ccc(-c4cn[nH]c4)cc3C2)c1 [Compound T209, N-(3-fluoro-5-methoxybenzyl)-5-(1H-pyrazol-4-yl)isoindoline-2-carboxamide]
0.05 to 0.5 | 0.05 to 0.5 | COc1cc(F)cc(CNC(=O)n2ccc3cc(-c4cn[nH]c4)ccc32)c1 [Compound T210]
0.5 to 5 | 0.5 to 5 | COc1cc(F)cc(CN(CC2COC2)C(=O)N2CCc3cc(-c4cn[nH]c4)ccc32)c1 [Compound T212]
≤ 0.05 | ≤ 0.05 | COCCOc1cc(F)cc(CNC(=O)N2CCc3cc(-c4cn[nH]c4)ccc32)c1 [Compound T213]
0.05 to 0.5 | 0.05 to 0.5 | COc1cc(F)cc(CN(C(=O)N2CCc3cc(-c4cn[nH]c4)ccc3C2)C2COC2)c1 [Compound T214]
0.5 to 5 | 0.5 to 5 | COc1cc(F)cc(CN(C(=O)N2CCc3cc(-c4cn[nH]c4)ccc32)C2CCOCC2)c1 [Compound T215]
0.05 to 0.5 | 0.05 to 0.5 | COc1cc(F)cc(CN(C(=O)N2CCc3cc(-c4cn[nH]c4)ccc3C2)C2CCOCC2)c1 [Compound T216]
0.05 to 0.5 | 0.05 to 0.5 | COc1cc(F)cc(CNC(=O)N2CCc3cc(-c4c[nH]nn4)ccc32)c1 [Compound T217, N-(3-fluoro-5-methoxybenzyl)-5-(1H-1,2,3-triazol-4-yl)indoline-1-carboxamide]
0.5 to 5 | 0.05 to 0.5 | COc1cc(F)cc(CNC(=O)N2CCc3cc(-c4cn[nH]c4)cnc32)c1 [Compound T218, N-(3-fluoro-5-methoxybenzyl)-5-(1H-pyrazol-4-yl)-2,3-dihydro-1H-pyrrolo(2,3-b)pyridine-1-carboxamide]
≤ 0.05 | ≤ 0.05 | COc1cc(F)cc(CNC(=O)N2CCc3cc(-c4cn[nH]c4)ncc32)c1 [Compound T219]
0.05 to 0.5 | 0.05 to 0.5 | COc1cc(F)cc(CNC(=O)N2CCc3nc(-c4cn[nH]c4)ccc32)c1 [Compound T220, N-(3-fluoro-5-methoxybenzyl)-5-(1H-pyrazol-4-yl)-2,3-dihydro-1H-pyrrolo(3,2-b)pyridine-1-carboxamide]
0.05 to 0.5 | 0.05 to 0.5 | COc1cc(F)cc(CNC(=O)N2CCc3cc(-c4cn[nH]c4)cc(Cl)c32)c1 [Compound T221, 7-chloro-N-(3-fluoro-5-methoxybenzyl)-5-(1H-pyrazol-4-yl)indoline-1-carboxamide]
≤ 0.05 | ≤ 0.05 | COc1cc(F)cc(CNC(=O)N2CCc3cc(-c4cn[nH]c4)c(Cl)cc32)c1 [Compound T222, 6-chloro-N-(3-fluoro-5-methoxybenzyl)-5-(1H-pyrazol-4-yl)indoline-1-carboxamide]
≤ 0.05 | ≤ 0.05 | COc1cc(F)cc(CNC(=O)N2CC(C)(C)c3cc(-c4cn[nH]c4)ccc32)c1 [Compound T223]
0.05 to 0.5 | 0.05 to 0.5 | COc1cc(F)cc(CNC(=O)N2CCc3nc(-c4cn[nH]c4)sc3C2)c1 [Compound T224, N-(3-fluoro-5-methoxybenzyl)-2-(1H-pyrazol-4-yl)-6,7-dihydrothiazolo[5,4-c]pyridine-5(4H)-carboxamide]
≤ 0.05 | ≤ 0.05 | COc1cc(F)cc(CNC(=O)N2CCc3cc(-c4cn[nH]c4)c(F)cc32)c1 [Compound T225, 6-fluoro-N-(3-fluoro-5-methoxybenzyl)-5-(1H-pyrazol-4-yl)indoline-1-carboxamide]
≤ 0.05 | 0.05 to 0.5 | O=C(NCc1cc(F)cc(F)c1)N1CCc2cc(-c3cn[nH]c3)ccc21 [Compound T226]
≤ 0.05 | ≤ 0.05 | COc1cc(CNC(=O)N2CCc3cc(-c4cn[nH]c4)ccc32)ccn1 [Compound T227]

IC50 (ROCK2 kinase) [µM] | IC50 (ROCK1 kinase) [µM] | Compound
≤ 0.05 | ≤ 0.05 | COc1cc(F)cc(CNC(=O)N2CCc3c2cc(F)c(-c2cn[nH]c2)c3F)c1 [Compound T228, 4,6-difluoro-N-(3-fluoro-5-methoxybenzyl)-5-(1H-pyrazol-4-yl)indoline-1-carboxamide]
≤ 0.05 | ≤ 0.05 | COc1cc(F)cc(CNC(=O)N2CCCc3nc(-c4cn[nH]c4)sc32)c1 [Compound T229]
0.05 to 0.5 | 0.05 to 0.5 | COc1cc(F)cc(CNC(=O)N2CCCc3sc(-c4cn[nH]c4)nc32)c1 [Compound T230]
≤ 0.05 | ≤ 0.05 | COc1cc(F)cc(CNC(=O)N2CCc3nc(-c4cn[nH]c4)ncc32)c1 [Compound T231]
≤ 0.05 | ≤ 0.05 | COc1cc(F)cc(CNC(=O)c2cnc3cc(-c4cn[nH]c4)ccn23)c1 [Compound T233]
≤ 0.05 | ≤ 0.05 | COc1cc(F)cc(CNC(=O)c2ncc3cc(-c4cn[nH]c4)ccn23)c1 [Compound T234]
≤ 0.05 | ≤ 0.05 | COc1cc(F)cc(CNC(=O)c2ccc3nc(-c4cn[nH]c4)ccn23)c1 [Compound T235]
≤ 0.05 | ≤ 0.05 | COc1cc(F)cc(CNC(=O)c2nn(C)c3cc(-c4cn[nH]c4)ccc23)c1 [Compound T236]
≤ 0.05 | ≤ 0.05 | COc1cc(F)cc(CNC(=O)c2ccn3cc(-c4cn[nH]c4)ccc23)c1 [Compound T237]
≤ 0.05 | ≤ 0.05 | COc1cc(F)cc(CNC(=O)c2cnn3cc(-c4cn[nH]c4)ccc23)c1 [Compound T239]
0.5 to 5 | 0.5 to 5 | O=C(NCc1ccn[nH]1)N1CCc2cc(-c3cn[nH]c3)ccc21 [Compound T240]
0.05 to 0.5 | 0.05 to 0.5 | Cn1cc(CNC(=O)N2CCc3cc(-c4cn[nH]c4)ccc32)cn1 [Compound T241]
0.05 to 0.5 | 0.05 to 0.5 | Cn1cnc(CNC(=O)N2CCc3cc(-c4cn[nH]c4)ccc32)c1 [Compound T242]
0.5 to 5 | 0.5 to 5 | COc1cc(F)cc(CN(Cc2ccccc2)C(=O)N2CCc3cc(-c4cn[nH]c4)ccc32)c1 [Compound T243]
0.05 to 0.5 | 0.05 to 0.5 | CN(C)CCN(Cc1ccccc1)C(=O)N1CCc2cc(-c3cn[nH]c3)ccc21 [Compound T244]
0.05 to 0.5 | 0.05 to 0.5 | O=C(NCc1ccccc1)N1CCc2cc(-c3ccncc3)ccc21 [Compound T245]
0.5 to 5 | 0.5 to 5 | O=C(NCc1ccccc1)N1CCc2cc(-c3ccc4[nH]ccc4c3)ccc21 [Compound T246]
0.05 to 0.5 | 0.05 to 0.5 | O=C(NCc1ccc2[nH]cnc2c1)N1CCc2cc(-c3cn[nH]c3)ccc21 [Compound T247]
0.05 to 0.5 | 0.05 to 0.5 | CN(C)CCC(NC(=O)N1CCc2cc(-c3cn[nH]c3)ccc21)c1ccccc1 (stereo not shown) [Compound T248]
0.5 to 5 | 0.5 to 5 | O=C(NC(c1ccccc1)c1ccccc1)N1CCc2cc(-c3cn[nH]c3)ccc21 [Compound T249]
0.05 to 0.5 |  | COc1cccc(F)c1C(CO)NC(=O)N1CCc2cc(-c3cn[nH]c3)c(F)cc21 (stereo not shown) [Compound T363, 6-fluoro-N-(1-(2-fluoro-6-methoxyphenyl)-2-hydroxyethyl)-5-(1H-pyrazol-4-yl)indoline-1-carboxamide]
